Measurements: patent US9556217B2, “Amphiphilic compounds” (WISCONSIN ALUMNI RESEARCH FOUNDATION, priority 2012, dated 2017)

What was measured:
CMP-Sia = molecular target: T1, CMP-Sia (Mus musculus, UniProt Q61420); experiment: CPM thermal stability assay, CMP-Sia; set-up: species or system murine; details: CMC+0.04 wt %, 30° C., under the conditions used for the gel filtration analysis
T1 construct: GFP-His (C, cleaved yes); made in house; host or cells: Saccharomyces cerevisiae
T1 sequence (Q61420 1-336): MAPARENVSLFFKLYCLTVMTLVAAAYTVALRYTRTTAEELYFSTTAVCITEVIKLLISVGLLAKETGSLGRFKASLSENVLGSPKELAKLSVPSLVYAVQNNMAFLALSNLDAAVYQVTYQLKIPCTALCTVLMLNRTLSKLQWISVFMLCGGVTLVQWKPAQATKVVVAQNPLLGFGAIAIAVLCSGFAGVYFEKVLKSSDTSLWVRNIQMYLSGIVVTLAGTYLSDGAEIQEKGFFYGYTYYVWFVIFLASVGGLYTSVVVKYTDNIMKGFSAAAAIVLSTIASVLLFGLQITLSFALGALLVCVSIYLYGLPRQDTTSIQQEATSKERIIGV
Protocol: FIG. 6. CPM assays for (a) CMP-Sia, (b) GlpG and (c) SQR solubilized with each new amphiphile or DDM. The coumarin moiety of CPM is internally quenched by the maleimide unit, but the coumarin becomes fluorescent following reaction with Cys side chain thiol groups exposed upon protein unfolding. The CPM assay can therefore be used to monitor the extent of protein unfolding. CMP-Sia and GlpG were initially extracted from the native membrane with 1% DDM in PBS, 10 mM imidazole (pH 8.0), 150 mM NaCl, 10% glycerol, and isolated in 20 mM Tris (pH 7.5), 150 mM NaCl containing 0.03% DDM. SQR was extracted from the membrane using 2% C12E9 in 20 mM potassium phosphate (pH 7.4), 0.2 M EDTA, and isolated in 20 mM Tris (pH 7.6), 0.2% decyl-β-D-maltoside (DM). […] The “Relative amount of folded protein” in each case is defined as follows: 100% corresponds to the fluorescence emission intensity at time=0 min; 0% corresponds to the lowest value measured among the amphiphile-treated samples for each protein during the 130 min assay period. […] For GlpG and SQR, 0% is defined by the lowest value measured for protein solubilized with DDM. […]
CMP-Sia and GlpG were expressed as fusion proteins with a C-terminal GFP-His tag in Saccharomyces cerevisiae and Escherichia coli respectively. […]

LHI-RC superassembly = experiment: Extraction of LHI-RC superassembly from membranes; set-up: species or system R. capsulatus; details: 2 wt % GDN
Protocol: The favorable MelB extraction performance of GDN led to the examination of this amphiphile for extraction of other IMPs. […] DDM and GDN were used to extract a CMP-Sia fusion protein bearing green fluorescent protein (GFP) at the C-terminus, after expression in Saccharomyces cerevisiae; the amount of solubilized protein was estimated by total fluorescence. GDN (2 wt %), DDM (1 wt %) and OG (1 wt %) gave ˜70%, ˜80% and ˜50% extraction yields, respectively.
The procedure was performed according to the protocol reported by Chae and coworkers (Nat. Methods 2010, 7, 1003-1008).
The solubilization and stability of the R. capsulatus superassembly were assessed according to the published protocol (Chae et al., J. Am. Chem. Soc. 2010, 132, 16750-16752). Briefly, specialized photosynthetic membranes obtained from an engineered strain of Rhodobacter (R.) capsulatus, U43[pUHTM86Bgl], lacking the LHII light-harvesting complex, were used. Solubilization of the LHI-RC superassembly began by thawing, homogenizing, and incubating frozen aliquots of R. capsulatus membranes at 32° C. for 30 min. Subsequent 30-min incubation was performed after adding DDM or LDAO at 1.0 wt % or GDN at 2.0 wt % in the solid form. […] To assess solubilization efficiency, UV-Vis spectra of the solubilized protein solutions were measured in a range of 650˜950 nm.

Row | Structure (SMILES) | Relative amount of folded protein (CPM assay), CMP-Sia (CMP-Sia) [%] | LHI-RC superassembly extraction compared with 1 wt % DDM (LHI-RC superassembly)
1 | CCCCCCCCCCCCO[C@@H]1O[C@H](CO)[C@@H](O[C@H]2O[C@H](CO)[C@@H](O)[C@H](O)[C@H]2O)[C@H](O)[C@H]1O [DDM, dodecyl-β-D-maltoside, reference compound] | ~20 | 
2 | C[C@@H]1CC[C@@]2(OC1)O[C@H]1C[C@H]3[C@@H]4CC=C5C[C@@H](OCCC(CO[C@@H]6OC(CO)[C@@H](O[C@H]7OC(CO)[C@@H](O)C(O)C7O)C(O)C6O)CO[C@@H]6OC(CO)[C@@H](O[C@H]7OC(CO)[C@@H](O)C(O)C7O)C(O)C6O)CC[C@]5(C)[C@H]4CC[C@]3(C)[C@@H]1[C@@H]2C (some centres unmarked) [GDN, glyco-diosgenin] |  | Comparable results
